Measurements published in US20250041624A1, “METHOD FOR ENHANCING ACTIVITY OF PHOTOSENSITIZER BY MAGNETIC FIELD” (PEKING UNIVERSITY, priority 2021, published 2025).
Where “and” joins values, the source holds several entries; their conditions need not be identical. Identical values can stand only once. Like-named read-outs stand apart in the source and are kept apart here.

How the values were obtained:
HeLa cells = test: CCK-8 cell viability of HeLa cells under light and magnetic field; assay type: cell-based; conditions: for CV(%) (cell viability): final concentration of photosensitizer 30 mol/L (so in the source), light 10 min; for mfe(CV)(%) =(CV0−CVB)/CV0×100%: photosensitizer 30 mol/L (so in the source); for IC50: white light 400-700 nm 5 mW·cm−2, 10 min, read-out: RB Half inhibitory concentration
Description: (1) Appropriate amounts of HeLa cells are added to DMEM medium (Corning, USA, high glycoform, with glucose concentration […] 4.5 g/L), and then appropriate amounts of 10 wt % fetal bovine serum (FBS), 1 wt % penicillin and streptomycin are added. Cells are cultured at 37° C. in humidified air with 5% (volume fraction) CO2 for 2 days.
The above Hela cells (2×10^3/well) are seeded in 96-well plates for 24 h without light. 100 μL medium and 100 μL aqueous solution of RB with concentrations of 80, 40, 20, 10, 5 μmol/L or 100 μL 0.01 mol/L PBS buffer (phosphate buffered saline) are added respectively, and treated for 24 h, thereafter the cells are washed 3 times with PBS buffer.
DMEM (comprising FBS) medium is added to the 96-well plates for 24 hours in the absence of light. An additional 10 μL of Cell Counting Kit-8 (CCK-8 kit) (Beyotime Biotechnology Co. Ltd.) and 90 μL of DMEM are added to each well, and the light and magnetic field strength are controlled for a subsequent incubation of 30 minutes. The absorbance at 450 nm is read using a microplate reader. Cell Viability (CV) of Hela cells is calculated using the following equation: […]
Where As is the absorbance of HeLa cells comprising photosensitizer (PS), Ac is the absorbance of Hela cells without PS and Ab is the absorbance of those without PS and HeLa cells.
The change rate of half inhibitory concentration, mfeP (Cell Viability (%)) is obtained as follows: mfeP=(IC50,0−IC50,B)/IC50,B×100%, where IC50,0 is half inhibitory concentration at magnetic field strength of 0 mT and IC50,B is half inhibitory concentration at magnetic field strength of B.
Under white light with lighting conditions of 400-700 nm, the power of 5 mW·cm^−2, test is carried out in a magnetic field with strengths of 0-800 mT, and the irradiation and the magnetic field perform for 10 min. The results of the test calculations for mfeP (Cell Viability (%)) at different concentrations of RB and each magnetic field strength are shown in FIG. 8. The RB half inhibitory concentration μmol/L at magnetic field strength of B calculated by logistic regression model fitting according to FIG. 8 are shown in Table 2 below.
In above experiment, with final concentration of photosensitizer of 30 mol/L, CV (%) and mfe (CV) (%) measured and calculated at each magnetic field strength are specifically shown in Table 3, where mfe(CV)=(CV0−CVB)/CV0×100%.

Bax/Bcl-2 = test: Western blot of Bax/Bcl-2 in HeLa cells; assay type: cell-based; conditions: RB 30 μmol/L treated HeLa; light; 250 mT vs no magnetic field
Description: (§1) HeLa cells (2×10^4/well) are seeded in 6-well plates and cultured for 24 hours, added with RB solution (final concentration 30 μmol/L) or PBS buffer (final concentration 0.01 mol/L), and after treating 24 hours, cells are washed 3 times with PBS buffer.
(§2) The cells are placed under a magnetic field at 0, 250 or 800 mT, simultaneously with light (561 nm, 5 mW·cm^−2) or in the dark. After 24 hours treatment, cells are washed with PBS buffer and collect by centrifugation. Protein is extracted from cells using RIPA lysis buffer (medium lysis strength). Target protein is detected with primary antibody, to identify cleaved Caspase-3 protease, Bax (BCL2-Associated X protein) and Bcl-2 (B lymphocytomatose-2 gene), respectively, with β-Actin antibody as the reference. Images are acquired by Bio-Rad ChemiDoc touch imaging system, and results are shown in FIG. 14, in which, group A is PBS buffer treated HeLa cells (light, no magnetic field); group B is RB treated HeLa cells (light, no magnetic field); group C is RB-treated Hela cells (light, 250 mT magnetic field); group D is RB-treated Hela cells (light, 800 mT magnetic field).
(§3) The change rate of protein expression is (AB−A0)/A0×100%, where AB and A0 are protein expression with and without magnetic field, respectively (obtained by ImageJ software analyzing the bands in FIG. 14).

cleaved Caspase-3 = test: Western blot of cleaved Caspase-3 in HeLa cells; assay type: cell-based; conditions: RB 30 μmol/L treated HeLa; light; 250 mT vs no magnetic field
Description: as §1, §2, §3

[1] = tested on: HeLa xenograft tumor tissue; test: IHC staining (Bax, Bcl-2, cleaved Caspase-3) of xenograft tumor tissue sections for apoptosis; assay type: in vivo, BALB/c nude mice; conditions: RB added, day 14, FIG. 19
Text: Test (two): After sacrificing the mice on day 14, tumor tissue and major organs (heart, liver, spleen, lungs and kidney) are collected and detected histologically. Tumor tissue and major organs are fixed by 10% neutral formalin solution. Hematoxylin-Eosin (H&E) staining is used to analyze toxicity of light and magnetic field effects on tumor and normal organs. Terminal deoxynucleotidyl transferase-mediated dUTP nick end labeling (TUNEL) staining is used to detect apoptosis in tumor tissue, and expression of cleaved Caspase-3, Bax and Bcl-2 in tumor tissue is simultaneously detected.

With `O=C1OC2(c3cc(I)c(O)c(I)c3Oc3c2cc(I)c(O)c3I)c2c(Cl)c(Cl)c(Cl)c(Cl)c21` [RB, Rose Bengal] the “mfeP (Cell Viability(%), change rate of half inhibitory concentration)” value (HeLa cells; MF 14 mT vs 0 mT) was −21% and −21.5%, the “mfeP (Cell Viability(%), change rate of half inhibitory concentration)” value (HeLa cells; MF 40 mT vs 0 mT) was 8.1% and the “mfeP (Cell Viability(%), change rate of half inhibitory concentration)” value (HeLa cells; MF 90 mT vs 0 mT) was 13.3%. For the same molecule, the “mfeP (Cell Viability(%), change rate of half inhibitory concentration)” value (HeLa cells; MF 150 mT vs 0 mT) was 14.8%, the “mfeP (Cell Viability(%), change rate of half inhibitory concentration)” value (HeLa cells; MF 250 mT vs 0 mT) was 22.4% and the “mfeP (Cell Viability(%), change rate of half inhibitory concentration)” value (HeLa cells; MF 575 mT vs 0 mT) was 22.1%. The “mfeP (Cell Viability(%), change rate of half inhibitory concentration)” value (HeLa cells; MF 700 mT vs 0 mT) was −11.1%, the “mfeP (Cell Viability(%), change rate of half inhibitory concentration)” value (HeLa cells; MF 800 mT vs 0 mT) was −58% and the “CV(%) (cell viability)” value (HeLa cells; MF 0 mT) was 71.1 ± 0.5%. For the same molecule, the “CV(%) (cell viability)” value (HeLa cells; MF 14 mT) was 89.8 ± 4.2%, the “CV(%) (cell viability)” value (HeLa cells; MF 150 mT) was 72.5 ± 3.2% and the “CV(%) (cell viability)” value (HeLa cells; MF 250 mT) was 59.9 ± 2.6%. The “CV(%) (cell viability)” value (HeLa cells; MF 400 mT) was 42.3 ± 6.7%, the “CV(%) (cell viability)” value (HeLa cells; MF 575 mT) was 74.1 ± 0.6% and the “CV(%) (cell viability)” value (HeLa cells; MF 700 mT) was 78.3 ± 3.2%. The “CV(%) (cell viability)” value (HeLa cells; MF 800 mT) was 83.0 ± 0.5%, the “mfe(CV)(%) =(CV0−CVB)/CV0×100%” value (HeLa cells; MF 0 mT) was 0% and the “mfe(CV)(%) =(CV0−CVB)/CV0×100%” value (HeLa cells; MF 14 mT) was −26.3%. The “mfe(CV)(%) =(CV0−CVB)/CV0×100%” value (HeLa cells; MF 150 mT) was −1.97%, the “mfe(CV)(%) =(CV0−CVB)/CV0×100%” value (HeLa cells; MF 250 mT) was 15.8% and the “mfe(CV)(%) =(CV0−CVB)/CV0×100%” value (HeLa cells; MF 400 mT) was 40.5%. The “mfe(CV)(%) =(CV0−CVB)/CV0×100%” value (HeLa cells; MF 575 mT) was −4.2%, the “mfe(CV)(%) =(CV0−CVB)/CV0×100%” value (HeLa cells; MF 700 mT) was −10.13% and the “mfe(CV)(%) =(CV0−CVB)/CV0×100%” value (HeLa cells; MF 800 mT) was −16.7%. It also gave an IC50 (HeLa cells; MF 0 mT) of 34.2 ± 1.7 µM, an IC50 (HeLa cells; MF 14 mT) of 41.6 ± 1.4 µM and an IC50 (HeLa cells; MF 40 mT) of 31.5 ± 1 µM. The IC50 (HeLa cells; MF 90 mT) was 29.7 ± 0.7 µM, the IC50 (HeLa cells; MF 150 mT) was 29.2 ± 0.6 µM and the IC50 (HeLa cells; MF 250 mT) was 26.6 ± 0.3 µM. For the same molecule, the IC50 (HeLa cells; MF 400 mT) was 26.1 ± 0.8 µM, the IC50 (HeLa cells; MF 575 mT) was 26.7 ± 1.9 µM and the IC50 (HeLa cells; MF 700 mT) was 38 ± 1.1 µM. The IC50 (HeLa cells; MF 800 mT) was 54.1 ± 0.8 µM, the “change rate of Bax/Bcl-2 expression (%)” value (Bax/Bcl-2) was 10.6 ± 0.5% and the “change rate of cleaved Caspase-3 expression (%)” value (cleaved Caspase-3) was 34.1 ± 1.9%. The “apoptosis in tumor sections (IHC)” value ([1]; magnetic field of 250 mT) was “apoptosis is more pronounced” and the “apoptosis in tumor sections (IHC)” value ([1]; magnetic field of 800 mT) was “apoptosis is not significant”.
